Assay results from US12453779B2, “Chemoselective thiol-conjugation with alkene or alkyne-phosphonothiolates and -phosphonates” (FORSCHUNGSVERBUND BERLIN E.V., priority 2018, dated 2025).

Test system: CD30-overexpressing cell line Karpas 299
Assay: Cell based antiproliferation (resazurin) assay, Karpas 299
Conditions: Karpas 299, 96 hours of treatment, Brentuximab-NA3 DAR=3.15

Substance: Brentuximab: CD30-addressing antibody
- growth inhibition (cell viability): does not show growth inhibition
